PMC4503256 (Biopharmaceutics & drug disposition, 2012)
Read-outs that look alike come from different tables or passages of the source. Marks after values point to notes of the source that are not given here.

Assays:
[1] = cited from earlier work
[2] = measured value; cited from earlier work
[3] = cited from earlier work; for Log D: measured value
[4] = measured value; cited from earlier work; remark: listed apart in the source
[5] = In vitro partitioning experiments in two-phase dissolution apparatus; type: physicochemical
[6] = type: physicochemical; conditions: sodium acetate buffer 50 mM, pH 4.5, isotonic; unpublished data

Cc1nccn1CC1CCc2c(c3ccccc3n2C)C1=O (stereo not drawn) [Ondansetron]
Fa (fraction absorbed in vivo), actual ([1]; humans, oral solutions): 1

CCCC(CCC)C(=O)O [Valproic acid]
Fa (fraction absorbed in vivo), actual ([1]; humans, oral solutions): 1
ka × 10^4 (first-order absorption rate constant), decon. ([1]; humans, oral solutions, printed value = ka × 10^4): 11.5 s^−1

CN1C(C(=O)Nc2ccccn2)=C(O)c2ccccc2S1(=O)=O [Piroxicam]
pKa at 37 °C (basic) [2]: 2.3 (basic)^c
Log D ([3]; pH 1.2): pH 1.2: 0.92^f
Apparent partition coefficient ([3]; pH 7.5, 37 °C, ref Yazdanian et al. 27): 0.8
Log D ([3]; pH 7.5): pH 7.5: 0.8^g
Intrinsic solubility at 37 °C [4]: 6.6 × 10^−5f M

CC(C)Cc1ccc(C(C)C(=O)O)cc1 (stereo not drawn) [Ibuprofen]
Absorbed in humans ([1]; in vivo): > 99%
Best-fit PI for all conditions ([5]; Apparatus 1, experiments 3–6 (pH 1.5–6.3), 77 rpm, range of 2.2–4.8 × 10^−3): 3000 ×10⁻⁶ cm/s
PI × 10^4 (best fit) ([5]; Exp. 3, Fig 3(a), Apparatus 1, pH 1.5, 77 rpm, A/Va 0.42 cm^−1, MT/Va 16.7 μg/ml): 23.71 cm/s × 10^4
PI × 10^4 (best fit) ([5]; Exp. 4, Fig 3(b), Apparatus 1, pH 4.3, 77 rpm, A/Va 0.42 cm^−1, MT/Va 16.7 μg/ml): 30.06 cm/s × 10^4
PI × 10^4 (best fit) ([5]; Exp. 5, Fig 3(c), Apparatus 1, pH 4.4, 77 rpm, A/Va 0.42 cm^−1, MT/Va 16.7 μg/ml): 37.52 cm/s × 10^4
PI × 10^4 (best fit) ([5]; Exp. 6, Fig 3(d), Apparatus 1, pH 6.3, 77 rpm, A/Va 0.42 cm^−1, MT/Va 16.7 μg/ml): 30.81 cm/s × 10^4
PI × 10^4 (best fit) ([5]; Exp. 7, Fig 4(a), Apparatus 2, pH 5.0, 75 rpm, A/Va 0.30 cm^−1, MT/Va 25.0 μg/ml): 19.08 cm/s × 10^4
PI × 10^4 (best fit) ([5]; Exp. 8, Fig 4(b), Apparatus 2, pH 6.8, 75 rpm, A/Va 0.30 cm^−1, MT/Va 50.0 μg/ml): 28.73 cm/s × 10^4
PI × 10^4 (best fit) ([5]; Exp. 9, Fig 4(c), Apparatus 2, pH 6.8, 75 rpm, A/Va 0.30 cm^−1, MT/Va 25.0 μg/ml): 26.85 cm/s × 10^4
Dissolution rates of particles, buffer versus buffer saturated with 1-octanol [6]: no difference
